Data reported in PMC9267955, “Antidiabetic, Antiglycation, and Antioxidant Activities of Ethanolic Seed Extract of Passiflora edulis and Piceatannol In Vitro” (Molecules, 2022).
Marks after values point to notes of the source that are not given here.

Columns and labels:
[1] = HOCl scavenging activity
Method: Briefly, a freshly prepared HOCl solution, by adjusting the pH of a 1% solution of NaOCl to 6.2 with dropwise addition of diluted H2SO4, was diluted to 30 µM, using 100 mM phosphate buffer pH 7.4. […] QCT was used as means of comparison. Fluorescence assays were performed in a microplate reader (Infinite® 200 PRO, TECAN, Männedorf, Switzerland), at 37 °C, at wavelengths of 505 ± 10 nm and 530 ± 10 nm, for excitation and emission, respectively. The results were expressed as IC50 (μg/mL) of extract solution.

[2] = tested on: BEAS-2B cells; experiment: Intracellular ROS level (DCFH-DA) after NNKOAc; format: cell-based, human
Method: (§1) The generation of intracellular ROS in BEAS-2B, AML-12, and MCF-10A cells after treatments was measured as described previously. Briefly, DCFH-DA dye was readily taken up by cells and is subsequently hydrolyzed to DCFH, which can be oxidized to a measurable fluorescent product dichlorofluorescein (DCF). […] Cells with DMSO media (0.5%) served as the vehicle control. After treatments, DCFH-DA was added to the cell culture plates at a final concentration of 5 μM followed by 40 min incubation at dark. The fluorescence […] was then measured at an excitation and emission wavelength of 485 nm and 535 nm, using a microplate reader (Infinite® 200 PRO, TECAN, Männedorf, Switzerland).
(§2) BEAS-2B, MCF10-A, and AML-12, cells were purchased from the American Tissue Type Culture Collection (ATCC; CRL-9609, CRL-10317, and CRL-2254) and cultured with a specific medium. BEAS-2B cells were cultured with LHC-9 media at 37 °C in an incubator with 5% CO2. Culture flasks (polystyrene T75) were pre-coated with a mixture of 0.01 mg/mL fibronectin, 0.03 mg/mL bovine collagen type I, and 0.01 mg/mL bovine serum albumin were dissolved in LHC-9 medium overnight. […]

[3] = target: T1, DPP-4 human recombinant enzyme (Homo sapiens, UniProt P27487); experiment: DPP-4 inhibition assay; format: biochemical; settings: mean ± SD, triplicates
T1 construct: purchased Sigma-Aldrich (Oakville, ON, Canada)
Method: The DPP-4 inhibition assay was performed according to an established method. […] The reaction mixture was incubated for 30 min in the dark at 37 °C. Then, the fluorescent product was recorded at excitation/emission wavelengths of 350/450 nm using the microplate reader (Infinite® 200 PRO, TECAN, Männedorf, Switzerland). […] The percentage of the DPP-4 inhibition and IC50 was calculated as described in Section 3.3.1.

[4] = tested on: high-fat diet-fed C57BL/6J mice; set-up: method as in PMID 25832644; settings: PIC supplementation; cited from earlier work
[5] = tested on: AML-12 cells; experiment: Intracellular ROS level (DCFH-DA) after NNKOAc; format: cell-based, mouse; settings: 50 µg/mL, 3 h pretreatment; NNKOAc 100 µM
Method: as §1, §2

[6] = tested on: AML-12 cells; experiment: MTS cell viability assay; format: cell-based, mouse; settings: up to 250 µg/mL; 24 h
Method: BEAS-2B, MCF10-A, and AML-12, cells were purchased from the American Tissue Type Culture Collection (ATCC; CRL-9609, CRL-10317, and CRL-2254) and cultured with a specific medium. BEAS-2B cells were cultured with LHC-9 media at 37 °C in an incubator with 5% CO2. […] Cells were grown to around 70% confluence on the culture flask, and passages (<10) were employed for all experimental conditions. MTS Cell Titer 96™ aqueous cell proliferation assay was used to determine cell viability. […] For that, 1 × 10^4 cells were plated on a 96-well plate with a growth medium of 100 μL/well. […] Fifteen microliters of MTS reagent (with PMS) was then added to each well and incubated for 3 h in the dark. Absorbance was recorded at 490 nm using a microplate reader (Infinite® 200 PRO, TECAN, Männedorf, Switzerland). For each experiment, cells with DMSO media served as control, and cells with only culture medium and MTS reagent served as the blank.

[7] = tested on: amyloid fibrils of glycated BSA (BSA/MGO); experiment: Inhibition of amyloid fibril formation, ThT assay (BSA/MGO); format: biochemical, bovine; settings: highest obtained, PESE 200, PIC 200, AMG 100 µg/mL
Method: The BSA-MGO assay was based on those described before, with some modifications. This experiment is based on the formation of fluorescent AGEs from the middle stage of protein glycation. MGO (1.5 mM) and BSA (3 mg/mL) were dissolved separately in 0.05 M phosphate buffer (pH 7.4) containing NaCl (100 mM) and NaN3 (0.02% w/v). Then, 300 μL of MGO was incubated with samples at different concentrations (dissolved in a buffer containing 60% ethanol) for an hour at 37 °C, in the dark, with constant stirring. After BSA (3 mg/mL) was added to the reaction mixture and incubation time was extended to 48 h at 37 °C in darkness. The rest of the procedure was the same as that for the BSA-glucose/fructose model that is described above. The percentage of the AGE inhibition and IC50 was calculated as described in Section 3.3.1.
The fibrillar state of modified BSA was determined with ThT as previously described. ThT is a probe that binds directly to amyloid fibrils to give a strong fluorescent signal and thus can be used to quantify β-amyloid due to protein glycation. Basically, 30 μL of glycated protein (approx. 1 mg/mL), obtained as described previously, was mixed with 100 μL ThT reagent (10 μM ThT in 100 mM phosphate buffer, pH 7.0), and fluorescence was collected at excitation/emission wavelengths of 450/490 nm in a microplate reader (Infinite® 200 PRO, TECAN, Männedorf, Switzerland). […]

[8] = tested on: diabetic mice; set-up: method as in doi:10.32604/biocell.2020.08955; settings: cited from earlier work

T1 sequence (P27487 whole entry): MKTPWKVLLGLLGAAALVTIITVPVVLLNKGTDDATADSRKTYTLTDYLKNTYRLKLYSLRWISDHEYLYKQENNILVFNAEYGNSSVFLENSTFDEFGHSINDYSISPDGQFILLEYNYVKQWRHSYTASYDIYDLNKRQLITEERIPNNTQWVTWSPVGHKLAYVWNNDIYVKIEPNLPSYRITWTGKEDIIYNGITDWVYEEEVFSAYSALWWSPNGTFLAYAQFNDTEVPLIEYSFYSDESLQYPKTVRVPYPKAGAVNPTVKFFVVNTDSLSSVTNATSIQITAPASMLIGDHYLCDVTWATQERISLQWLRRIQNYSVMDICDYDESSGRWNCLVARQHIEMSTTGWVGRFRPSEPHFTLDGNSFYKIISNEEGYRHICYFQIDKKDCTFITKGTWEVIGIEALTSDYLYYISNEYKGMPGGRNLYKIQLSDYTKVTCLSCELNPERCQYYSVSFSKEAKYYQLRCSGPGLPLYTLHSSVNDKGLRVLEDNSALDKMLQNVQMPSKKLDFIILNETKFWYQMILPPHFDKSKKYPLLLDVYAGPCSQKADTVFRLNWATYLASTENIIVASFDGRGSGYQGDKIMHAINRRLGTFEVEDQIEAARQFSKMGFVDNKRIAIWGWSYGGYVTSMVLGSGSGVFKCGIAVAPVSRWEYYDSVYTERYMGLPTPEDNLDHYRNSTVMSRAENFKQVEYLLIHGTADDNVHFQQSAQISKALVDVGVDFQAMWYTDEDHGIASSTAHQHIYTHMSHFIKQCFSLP

## Oc1cc(O)cc(/C=C/c2ccc(O)c(O)c2)c1 [PIC, 3,3′,4′,5-trans-tetrahydroxystilbene]
[1]
  HOCl IC50: 1.2 ± 0.5 µg/mL
[2]; 50 µg/mL, 3 h pretreatment, NNKOAc 100 µM
  Protection from oxidative stress (ROS) caused by the carcinogen, BEAS-2B: able to protect
[2]; NNKOAc at 100 µM, abstract, cell line and concentration not specified
  Protection of cultured human cells from oxidative stress caused by NNKOAc: capable of protecting
[3]
  IC50: 4.66 mM
[4]
  Fasting blood glucose, high-fat diet-fed C57BL/6J mice: reduced fasting blood glucose
[5]
  Protection from oxidative stress (ROS) caused by the carcinogen, AML-12: able to protect
[6]
  Viability of AML-12 cells: maintained
[7]
  Inhibition of Amyloid Fibrils (%), MGO: 100 ± 3.8 ^a %
[8]
  Blood glucose, diabetic mice: lowered the blood glucose
  Glucose tolerance, diabetic mice: improved glucose tolerance
